Consider one sequence from patent publication US10201610B2, “Interference peptides and use thereof” (The University of Western Australia, priority 2014, dated 2019).

Ends that are not written are not given here.

Test [1] concerns mRNA levels of COLA1, COLA2, S1004A and DDIT3 (CHOP). The test can be described thus: Real time PCR of downstream effectors of EPRS in SUM149PT cells. It is filed as cell-based, human. From the text: FIG. 6 EN1-Ipeps binds the endogenous Glutamyl-Prolyl tRNA synthetase (EPRS) target and regulates downstream EPRS effectors in breast cancer cells. (a) EN1-iPep624 (SEQ ID NO: 5) captures and binds EPRS from total extracts of SUM149-PT cells. Affinity-capture immunoprecipitation and western blot detection of EPRS using biotinylated iPeps as bait, and total extracts of SUM149-PT cells. Same input loading of extract is shown in the SDS-PAGE gel on the left. […] The immunoprecipitations were done at least three times and averages and standard errors between experiments are indicated (p<0.01*, p<0.001**). (b) Full length EN1 binds the endogenous EPRS in MDA-MB-231 and SUM149PT cells. Total extracts of MDA-MB-231 and SUM149PT expressing either a full length EN1 cDNA engineered with a N-terminal FLAG tag or an empty-vector control were processed by immunoprecipitation with an anti-FLAG antibody. Immunoprecipitated complexes were blotted with an EPRS-specific antibody to detect endogenous EPRS. The same amount of loaded extracts (INPUT) is shown with anti-tubulin as endogenous control. The enrichment of the immunoprecipitated products was determined by quantification of the bands by densitometry as described above, and data was normalized to iPep624ΔHEX (SEQ ID NO: 18) control. […] Cell viability was determined by a Cell Titer Glo assay and IC50 concentrations determined as described in FIG. 5. […]
For orientation: Quantitative PCR measures a nucleic acid by following its amplification.

Test [2] deals with MDA-MB-231. Briefly: Cell Titer Glo cell viability assay, breast cancer cell line panel. It is filed as cell-based. Particulars: MDA-MB-231, 8 hours. How it is done:
(§1) To test the specificity of the EN1-iPep in cell lines expressing EN1, the inventors delivered the iPeps into a panel of breast cancer cell lines expressing different amounts of EN1.
(§2) All peptides were synthetized at the UNC High-Throughput Peptide Synthesis and Array Facility at UNC. Taxol, Rotenone and Halofuginone (Sigma-Aldrich, St Louis, Mo.) were dissolved in DMSO. A total of […] or 1×10^3 breast cells for peptide and drug treatment respectively, were seeded in 96-well plates. Cells were exposed for 8 hours to the peptide and 48 to 72 hours for drug treatment. The cell viability after peptide/drug treatment was assayed with the Cell Titer Glo (CTG) assay (Promega, Madison, Wis., USA).
Background: ATP-based viability assays read luminescence as a measure of living cells.

Test [3] has as its system MCF7. The test is described as above. Particulars: MCF7, 8 hours. Type of test: cell-based. On the procedure: as §1, §2
In test [4] the test system is SUM229. The test is described as above. Type of test: cell-based. Particulars: SUM229, 8 hours. On the procedure: as §1, §2
For test [5], the system named is caspase 3 activity in SUM149PT cells. The test can be described thus: Caspase-3 colorimetric assay in SUM149PT cells. It is filed as cell-based, human. The note with it: 8 hours, compared with non-treated or iPep624ΔHEX-treated cells. From the text: The EN1-iPeps and iPep controls were first tested in SUM149PT cells carrying high EN1 expression. Cells were first treated with a full-length 29-mer peptide (iPep624) comprising the N-terminal, less conserved amino acid sequences, the hexamotif, and the C-terminal tail. As a control, the inventors generated the iPep624ΔHEX in which the hexamotif was mutated from the wild type (wt) WPAWVY (SEQ ID NO: 13) to the GAAGAG (SEQ ID NO: 15) sequence. These mutations were expected to dramatically abolish the activity of the peptide. Both peptides were included in the culture medium of the basal cancer cells in increasing (0-100 μM) concentrations and incubated for 8 hours at 37° C. Treated cells were first analyzed using the Cell Titer Glo assay, which monitors metabolic viability. […] This calculated value of IC50 is in the range of concentrations observed with other peptides delivered with CPPs.
Detection of apoptosis was performed with a Caspase-3 colorimetric assay (Sigma-Aldrich, St Louis, Mo.) according to the manufacturer's instructions.

As to KKKRKVTDSQQPLVWPAWVYCTRYSDRPS [iPep624], the “DDIT3 mRNA in EN1-overexpressing cells” value in test [1] (15 μM active iPep over control) was “significantly up-regulated”. Besides, in test [1] (15 μM active peptide), the “up-regulation of COLA1, COLA2 and S1004A mRNA in EN1-overexpressing cells” value is reported as “significantly reverted”. Also, the values for the cell viability result in test [2], in test [3] and in test [4] were “no effect on cell viability”, “no effect on cell viability” and “decreased cell viability”, respectively. The “caspase 3 activity” value in test [5] is reported as “significantly higher”.
